Data from patent US12138341B1 (Technical Institute of Physics and Chemistry, CAS, priority 2023, dated 2024).

Test: In vivo pharmacokinetics experiment of CBD microneedle in a rat
Parameters: species or system SD rat
Conditions: gavage group (oral administration), FIG. 7

With `C=C(C)[C@@H]1CCC(C)=C[C@H]1c1c(O)cc(CCCCC)cc1O` [CBD, cannabidiol] the “time drug concentration in plasma is maintained” value was 2 days.
